Measurements taken from patent CN1221752A, “与阿卡加定相关的新型羊毛硫抗生素及其制备方法和用途” (priority 1997, dated 1999).
Like-named read-outs stand apart in the source and are kept apart here.

What was measured:
Streptogr G02G0CB2 = assay: In vitro antibacterial activity, MIC, 18 h; assay type: cell-based, Streptogr G; details: incubation time 18h; strain 02G0CB2
S.mitis 02mitGR16 = assay: In vitro antibacterial activity, MIC, 18 h; assay type: cell-based; details: incubation time 18h; strain 02mitGR16
[1] = Tolerability and toxicity; details: at the active concentration and the concentrations mentioned above
粪肠球茵 02D2DU18 = assay: In vitro antibacterial activity, MIC, 18 h; assay type: cell-based; details: incubation time 18h; strain 02D2DU18
金黄色葡萄球菌Exp54146 = assay type: cell-based, 金黄色葡萄球菌; details: strain Exp54146
[2] = Stability in solution (physicochemical properties); details: neutral / weakly alkaline vs strongly acidic / strongly alkaline media
[3] = tested on: Staph.coag.negative012HT5; assay: In vitro antibacterial activity, MIC, 18 h; assay type: cell-based, Staph.coag.negative; details: incubation time 18h; strain 012HT5
金黄色葡萄球菌SG511 = assay type: cell-based, 金黄色葡萄球菌
化脓葡萄球菌A561 = assay type: cell-based, 化脓葡萄球菌; details: strain A561
屎肠球菌M78L = assay type: cell-based, 屎肠球菌; details: strain M78L
大肠杆菌 = assay type: cell-based
化脓葡萄球菌 02A1SJ1 = assay: In vitro antibacterial activity, MIC, 18 h; assay type: cell-based; details: incubation time 18h; strain 02A1SJ1
粪肠球菌 02D2uC5 = assay: In vitro antibacterial activity, MIC, 18 h; assay type: cell-based; details: incubation time 18h; strain 02D2uC5
表皮葡萄球菌 012GO20 = assay: In vitro antibacterial activity, MIC, 18 h; assay type: cell-based; details: incubation time 18h; strain 012GO20
[4] = Solubility (physicochemical properties); details: methanol, water
粪肠球菌 02D2HM9 = assay: In vitro antibacterial activity, MIC, 18 h; assay type: cell-based; details: incubation time 18h; strain 02D2HM9
011HT18 = assay: In vitro antibacterial activity, MIC, 18 h; assay type: cell-based; details: incubation time 18h; strain 011HT18
化脓葡萄球菌 02A1CU1 = assay: In vitro antibacterial activity, MIC, 18 h; assay type: cell-based; details: incubation time 18h; strain 02A1CU1
表皮葡萄球菌 012GO42 = assay: In vitro antibacterial activity, MIC, 18 h; assay type: cell-based; details: incubation time 18h; strain 012GO42
011HT3 = assay: In vitro antibacterial activity, MIC, 18 h; assay type: cell-based; details: incubation time 18h
S.pnenmoniae 030BI2 = assay: In vitro antibacterial activity, MIC, 18 h; assay type: cell-based; details: incubation time 18h; strain 030BI2
化脓葡萄球菌 02A1F16 = assay: In vitro antibacterial activity, MIC, 18 h; assay type: cell-based; details: incubation time 18h; strain 02A1F16
金黄色葡萄球菌 011DU5 = assay: In vitro antibacterial activity, MIC, 18 h; assay type: cell-based; details: incubation time 18h; strain 011DU5
金黄色葡萄球菌 011CB20 = assay: In vitro antibacterial activity, MIC, 18 h; assay type: cell-based; details: incubation time 18h; strain 011CB20
金黄色葡萄球菌 O11HT1 = assay: In vitro antibacterial activity, MIC, 18 h; assay type: cell-based; details: incubation time 18h; strain O11HT1
金黄色葡萄球菌 0121O64 = assay: In vitro antibacterial activity, MIC, 18 h; assay type: cell-based; details: incubation time 18h; strain 0121O64
S.milleri 02milGR12 = assay: In vitro antibacterial activity, MIC, 18 h; assay type: cell-based; details: incubation time 18h; strain 02milGR12
粪肠球菌 02D2HT10 = assay: In vitro antibacterial activity, MIC, 18 h; assay type: cell-based; details: incubation time 18h; strain 02D2HT10
[5] = incubation time 24h, strain SG511
[6] = incubation time 24h, strain SG511 + 10% serum
[7] = strain 011HT3 + 50% serum (first such line)
[8] = strain 011HT3 + 50% serum (second such line)
[9] = Boc-derivative table, 接种时间24h, strain SG511
[10] = Boc-derivative table, 接种时间24h, strain SG511 + 10% serum

Substance	MIC (Streptogr G02G0CB2) [µg/mL]	MIC (S.mitis 02mitGR16) [µg/mL]	MIC (粪肠球茵 02D2DU18) [µg/mL]	MIC (金黄色葡萄球菌Exp54146; incubation time 24h) [µg/mL]	MIC [3] [µg/mL]	MIC (金黄色葡萄球菌SG511; [5]) [µg/mL]	MIC (金黄色葡萄球菌SG511; [6]) [µg/mL]	MIC (化脓葡萄球菌A561; incubation time 24h) [µg/mL]	MIC (屎肠球菌M78L; incubation time 24h) [µg/mL]	MIC (大肠杆菌; incubation time 24h) [µg/mL]	MIC (化脓葡萄球菌 02A1SJ1) [µg/mL]	MIC (粪肠球菌 02D2uC5) [µg/mL]	MIC (表皮葡萄球菌 012GO20) [µg/mL]	MIC (粪肠球菌 02D2HM9) [µg/mL]	MIC (011HT18) [µg/mL]	MIC (化脓葡萄球菌 02A1CU1) [µg/mL]	MIC (表皮葡萄球菌 012GO42) [µg/mL]	MIC (011HT3; strain 011HT3) [µg/mL]	MIC (011HT3; [7]) [µg/mL]	MIC (011HT3; [8]) [µg/mL]	also measured
Ala(0)-阿卡加定	20	20	5	40	> 40	5	20	≤ 0.04	5	> 40	≤ 0.04	20	> 40	> 40	> 40	≤ 0.04	> 40	20	20	40	Cytotoxicity or other toxicity [1]: 没有发现其细胞毒性或其它的毒性; Tolerability [1]: 耐受性很好; Stability in solution [2]: 于中性和弱碱性介质中稳定，但于强酸性和强碱性溶液中不稳定; Solubility [4]: 溶于甲醇和水; MIC (S.pnenmoniae 030BI2): 2.5 µg/mL; MIC (化脓葡萄球菌 02A1F16): ≤ 0.04 µg/mL; MIC (金黄色葡萄球菌 011DU5): 40 µg/mL; MIC (金黄色葡萄球菌 011CB20): > 40 µg/mL; MIC (金黄色葡萄球菌 O11HT1): 1.1 µg/mL; MIC (金黄色葡萄球菌 0121O64): > 40 µg/mL; MIC (S.milleri 02milGR12): 40 µg/mL; MIC (粪肠球菌 02D2HT10): > 40 µg/mL
Boc-Ile(0)-阿卡加定 [Boc-Ile-Acta]																					MIC (金黄色葡萄球菌Exp54146; Boc-derivative table, 接种时间24h): > 40 µg/mL; MIC (金黄色葡萄球菌SG511; [9]): 20 µg/mL; MIC (金黄色葡萄球菌SG511; [10]): 40 µg/mL; MIC (化脓葡萄球菌A561; Boc-derivative table, 接种时间24h): > 40 µg/mL; MIC (屎肠球菌M78L; Boc-derivative table, 接种时间24h): > 40 µg/mL; MIC (大肠杆菌; Boc-derivative table, 接种时间24h): > 40 µg/mL
Gln(0)-阿卡加定 [Gln-Acta]				> 40		20	40	5	10	> 40											
Ile(0)-阿卡加定 [Ile-Acta]	10	10	5	2.5	> 40	1.2	2.5	≤ 0.04	5	> 40	≤ 0.04	40	> 40	40	> 40	≤ 0.04	> 40	2.5	2.5	5	MIC (S.pnenmoniae 030BI2): 1.2 µg/mL; MIC (化脓葡萄球菌 02A1F16): ≤ 0.04 µg/mL; MIC (金黄色葡萄球菌 011DU5): 10 µg/mL; MIC (金黄色葡萄球菌 011CB20): 40 µg/mL; MIC (金黄色葡萄球菌 O11HT1): 1.2 µg/mL; MIC (金黄色葡萄球菌 0121O64): > 40 µg/mL; MIC (S.milleri 02milGR12): > 40 µg/mL; MIC (粪肠球菌 02D2HT10): > 40 µg/mL
Lys(0)-阿卡加定 [Lys-Acta]	5	10	5	10	> 40	1.2	2.5	≤ 0.04	5	> 40	≤ 0.04	40	> 40	> 40	> 40	≤ 0.04	> 40	10	10	10	MIC (S.pnenmoniae 030BI2): 2.5 µg/mL; MIC (化脓葡萄球菌 02A1F16): ≤ 0.04 µg/mL; MIC (金黄色葡萄球菌 011DU5): 10 µg/mL; MIC (金黄色葡萄球菌 011CB20): > 40 µg/mL; MIC (金黄色葡萄球菌 O11HT1): 0.6 µg/mL; MIC (金黄色葡萄球菌 0121O64): > 40 µg/mL; MIC (S.milleri 02milGR12): 40 µg/mL; MIC (粪肠球菌 02D2HT10): > 40 µg/mL
N-Boc-Abu(0)-阿卡加定 [Boc-Abu-Acta]																					MIC (金黄色葡萄球菌Exp54146; Boc-derivative table, 接种时间24h): > 40 µg/mL; MIC (金黄色葡萄球菌SG511; [9]): 5 µg/mL; MIC (金黄色葡萄球菌SG511; [10]): 10 µg/mL; MIC (化脓葡萄球菌A561; Boc-derivative table, 接种时间24h): > 40 µg/mL; MIC (屎肠球菌M78L; Boc-derivative table, 接种时间24h): > 40 µg/mL; MIC (大肠杆菌; Boc-derivative table, 接种时间24h): > 40 µg/mL
Phe(0)-阿卡加定 [Phe-Acta]				5		0.6	5	> 40	> 40	> 40											
Phe-Ala(0)-阿卡加定 [Phe-Ala-Acta]				20		5	10	> 40	10	> 40											
二-Boc-Lys(0)-阿卡加定 [Boc-Lys-Acta]	2.5	5	10		> 40						0.08	40	> 40	> 40	> 40	≤ 0.04	> 40	10	20	40	MIC (金黄色葡萄球菌Exp54146; Boc-derivative table, 接种时间24h): 10 µg/mL; MIC (金黄色葡萄球菌SG511; [9]): 2.5 µg/mL; MIC (金黄色葡萄球菌SG511; [10]): 10 µg/mL; MIC (化脓葡萄球菌A561; Boc-derivative table, 接种时间24h): ≤ 0.04 µg/mL; MIC (屎肠球菌M78L; Boc-derivative table, 接种时间24h): 10 µg/mL; MIC (大肠杆菌; Boc-derivative table, 接种时间24h): > 40 µg/mL; MIC (S.pnenmoniae 030BI2): 1.2 µg/mL; MIC (化脓葡萄球菌 02A1F16): ≤ 0.04 µg/mL; MIC (金黄色葡萄球菌 011DU5): 40 µg/mL; MIC (金黄色葡萄球菌 O11HT1): 10 µg/mL; MIC (金黄色葡萄球菌 0121O64): > 40 µg/mL; MIC (S.milleri 02milGR12): 5 µg/mL; MIC (粪肠球菌 02D2HT10): > 40 µg/mL
